≈ marks a conversion by molar mass, not a printed value.
Tests used:
[1] = equivalent diffusion distance through oil-membrane compared to water (calculation); assay type: physicochemical
Excerpt: For this reason, the present inventors chose to use 11 μm thick polycarbonate track-etch membranes instead of thicker hydrophobic membranes such as conventional porous Teflon films (z=10s to 100s of μm). The oil wicks into and remains in the track-etch membrane pores because of its lower interfacial surface tension with the polycarbonate than the water has with polycarbonate. […] The diffusion coefficient of an analyte is dependent on the viscosity of the fluid it is diffusing through. Therefore, an important design element for the oil is to have a low viscosity (diffusion coefficient is inversely proportional to the viscosity of the oil [Walter, A.; Gutknecht, J. Permeability of Small Nonelectrolytes through Lipid Bilayer Membranes. J. Membr. Biol. 1986, 90 (3), 207-217. https://doi.org/10.1007/BF01870127]. Consider an informative example related to the materials used here. The optimal track-etch membranes for this work (see Table 1-below) have an 11 μm membrane thickness and 15.7% porosity, which is equivalent to the analyte having to diffuse through a uniform 70 μm of oil (11 μm/0.157). Now consider castor oil, with a viscosity about 730 times greater than that of water (see Table 2-below). An 11 μm thick castor oil membrane would then be equivalent to a 51,170 μm thick water diffusion distance (11 μum/0.157*730). Alternatively, using a low viscosity oil, such as 1-decanol, the 11 μm thick oil-membrane would have an equivalent thickness of only 945 μm diffusion distance through water (see Table 2).

[2] = cited from earlier work; for LogK (octanol over water): Table 3, ratio of concentration of the oil in octanol and water at equilibrium
[3] = cited from earlier work; for Viscosity at 25° C.: Table 3
[4] = cited from earlier work
[5] = cited from earlier work; remark: listed apart in the source

Structure (SMILES)	Equivalent water thickness ([1]; pore size 0.1 μm, open area 3.1%, thickness 6 μm)	Equivalent water thickness ([1]; pore size 0.2 μm, open area 9.4%, thickness 10 μm)	Equivalent water thickness ([1]; pore size 0.4 μm, open area 12.6%, thickness 10 μm)	Equivalent water thickness ([1]; pore size 1.0 μm, open area 15.7%, thickness 11 μm) [μm]	Equivalent water thickness ([1]; pore size 3.0 μm, open area 14.1%, thickness 9 μm) [μm]	Log P ([2]; Table 2)	LogK (octanol over water) [2]	Viscosity ([3]; Table 2) [cP]	Viscosity at 25° C. [3] [cP]	Vapor pressure at 25° C. [4] [mmHg]	Solubility in water [5] [µg/mL]
CCCCCCCCCCO [1-Decanol]	26,10 μm	1,434 μm	1,070 μm	945	861	5	4.57	12	12	0.00851	–
CCCCCCCCOCCCCCCCC [Dioctyl ether]	–	–	–	–	–	–	6.9	–	0.224	0.005	–
CCCCCCCCCCCCS [Dodecane thiol]	–	–	–	–	–	–	6.1	–	–	0.000015	<0.2
CCCCCCCC/C=C\CCCCCCCC(=O)O [Oleic acid]	–	–	–	–	–	–	7.64	–	27.64	0.0000005	0.01 (≈ 0.0354 µM)
CCCCCCCCCCCCCC [Tetradecane]	–	–	–	–	–	–	8.19	–	2.13	0.0369	0.00033 (≈ 0.00166 µM)
CC1=C(C/C=C(\C)CCC[C@H](C)CCC[C@H](C)CCCC(C)C)C(=O)c2ccccc2C1=O [Vitamin K1]	–	–	–	–	–	–	10.9	–	–	–	–
